pIC50: −log10 of the molar value.
Test system: OS-RC-2
Test: cells
Details: Homo sapiens, OS-RC-2, 48 h
Description: Antiproliferative activity against human OS-RC-2 cells assessed as inhibition of cell growth incubated for 48 hrs

- pIC50: ~5.05
SMILES: CNC(=O)c1cc(Oc2ccc(NC(=O)Nc3ccc(Cl)c(C(F)(F)F)c3)cc2)ccn1 [SORAFENIB]
